# Assay results published in US8420675B2, “Aminotetrahydroindazoloacetic acids” (Hoffmann-La Roche Inc., priority 2008, dated 2013).
# Target: T1, human CRTH2 (Homo sapiens, UniProt Q9Y5Y4)
# T1 construct: expressed in transfected cells
# T1 sequence (Q9Y5Y4 1-395): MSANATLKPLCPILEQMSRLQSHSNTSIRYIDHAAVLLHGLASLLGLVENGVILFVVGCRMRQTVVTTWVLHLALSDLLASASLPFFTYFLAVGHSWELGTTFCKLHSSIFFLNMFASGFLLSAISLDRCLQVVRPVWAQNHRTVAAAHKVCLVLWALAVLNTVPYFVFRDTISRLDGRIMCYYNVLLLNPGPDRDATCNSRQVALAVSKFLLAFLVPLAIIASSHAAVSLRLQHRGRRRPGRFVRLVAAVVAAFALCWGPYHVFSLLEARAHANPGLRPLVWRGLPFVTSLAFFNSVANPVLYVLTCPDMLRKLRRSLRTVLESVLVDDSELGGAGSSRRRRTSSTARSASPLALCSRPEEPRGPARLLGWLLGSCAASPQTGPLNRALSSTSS
# Assay: Human CRTH2 Receptor Binding Assay (whole cell, [3H]ramatroban competition)
# Conditions: CHO-K1 cells expressing human CRTH2 and G-alpha16; 20 nM [3H]ramatroban; 1 hour, room temperature
# Summary of the method: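 CHO-K1 cells stably co-expressing human CRTH2 and G-alpha16, 1.5×10^5 per reaction, incubated 1 hour at room temperature with 20 nM [3H]ramatroban in PBS containing 10 mM MgCl2 and 0.06% BSA. Non-specific binding defined with 10 μM 15(R)-15-methyl PGD2. IC50 from 7 concentrations by 4-parameter logistic fit of specific binding inhibition.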
row,SMILES,IC50 [nM]
1,"CN([C@@H]1CCCc2c1cnn2CCC(=O)O)S(=O)(=O)c1cc(C(F)(F)F)cc(S(=O)(=O)c2ccc(Cl)cc2)c1 [Example 13-4a, 3-((R)-4-{[3-(4-Chloro-benzenesulfonyl)-5-trifluoromethyl-benzenesulfonyl]-methyl-amino}-4,5,6,7-tetrahydro-indazol-1-yl)-propionic acid]",2.5
2,"COc1ccc(S(=O)(=O)c2cc(C(F)(F)F)cc(S(=O)(=O)N(C)[C@@H]3CCCc4c3cnn4CCC(=O)O)c2)cc1 [Example 13-5a, 3-((R)-4-{[3-(4-Methoxy-benzenesulfonyl)-5-trifluoromethyl-benzenesulfonyl]-methyl-amino}-4,5,6,7-tetrahydro-indazol-1-yl)-propionic acid]",5.8
3,"Cc1ccc(S(=O)(=O)c2cc(C(F)(F)F)cc(S(=O)(=O)N(C)[C@@H]3CCCc4c3cnn4CCC(=O)O)c2)cc1 [Example 13-6a, 3-((R)-4-{Methyl-[3-(toluene-4-sulfonyl)-5-trifluoromethyl-benzenesulfonyl]-amino}-4,5,6,7-tetrahydro-indazol-1-yl)-propionic acid]",7.8

# Next, values leading:
row,IC50 [nM],SMILES
1,356,"O=C(O)Cn1ncc2c1CCCC2NS(=O)(=O)c1cccc(NC(=O)c2ccccc2)c1 (centres unmarked) [Example 14-1a, [4-(3-Benzoylamino-benzenesulfonylamino)-4,5,6,7-tetrahydro-indazol-1-yl]-acetic acid]"
2,360,"O=C(O)Cn1ncc2c1CCCC2NS(=O)(=O)c1cccc(NS(=O)(=O)c2ccccc2)c1 (centres unmarked) [Example 15-1a, [4-(3-Benzenesulfonylamino-benzenesulfonylamino)-4,5,6,7-tetrahydro-indazol-1-yl]-acetic acid]"
